Results as given in article PMC5607274, “An iterative compound screening contest method for identifying target protein inhibitors using the tyrosine-protein kinase Yes” (Scientific Reports, 2017).

These molecules were tested against T1, human recombinant Yes [a.a. 2–543 (end)] (Homo sapiens, UniProt P07947) (assay: ADP-Glo kinase assay, inhibition rates of Yes phosphorylation activity (first and second screening)). Settings: first screening; mean of n = 4 wells; 10 μmol L−1 compound.
T1 construct: human recombinant Yes [a.a; 2–543 (end)]; purchased BPS Bioscience 40488
T1 sequence (P07947 2-543): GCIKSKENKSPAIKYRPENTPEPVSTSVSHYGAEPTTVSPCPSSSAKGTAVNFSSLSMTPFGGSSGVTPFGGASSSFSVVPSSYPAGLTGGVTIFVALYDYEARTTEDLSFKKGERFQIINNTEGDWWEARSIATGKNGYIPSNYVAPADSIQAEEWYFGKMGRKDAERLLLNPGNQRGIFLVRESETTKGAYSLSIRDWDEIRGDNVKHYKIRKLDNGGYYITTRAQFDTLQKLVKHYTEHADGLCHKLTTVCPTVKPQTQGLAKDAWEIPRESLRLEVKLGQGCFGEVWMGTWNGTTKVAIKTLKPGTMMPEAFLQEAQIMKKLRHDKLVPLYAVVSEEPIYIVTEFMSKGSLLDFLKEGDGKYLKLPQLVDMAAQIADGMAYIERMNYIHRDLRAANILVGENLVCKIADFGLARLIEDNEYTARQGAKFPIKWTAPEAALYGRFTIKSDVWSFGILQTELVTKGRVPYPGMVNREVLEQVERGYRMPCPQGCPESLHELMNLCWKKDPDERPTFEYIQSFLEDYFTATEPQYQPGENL
Format: biochemical
Procedure: All inhibitory assays of the phosphorylation activity of Yes were performed in accordance with the Promega Technical Manual for the ADP-Glo™ Kinase Assay (Fitchburg, WI, USA. Catalog number: V9102). The human recombinant Yes [a.a. 2–543 (end)] was purchased from BPS Bioscience (catalog number: 40488). The details of the assay protocol and reagent information are given elsewhere.
The screening was conducted in three steps consisting of the first screening, the second screening, and the IC50 determination, as can be illustrated in Fig. 1b. First, we determined the inhibition rates of the 1,991 compounds. Each compound was placed in 4 wells of a 384-well plate. In total, 80 compounds were assayed on one plate and the other wells were used for positive and negative controls. The compounds were randomly placed on plates so that compounds proposed by one group were not placed on a plate together. A mean of four inhibition rates for each compound was compared to criteria for the first screening. […] Second, the inhibition rates of the screened compounds were determined on one plate using the same procedure of the first screening, where compounds were dissolved from fresh powder. […] Screened compounds were then evaluated for their IC50 values.

Structure (SMILES)	First screening IR (inhibition rate) [%]
CN(Cc1ccc(OC(F)F)cc1)C(=O)CN1C(=O)NC(C)(c2ccccc2Br)C1=O (stereo not shown) [Compound Z14158957]	23
CCC1(c2ccc(F)cc2)NC(=O)N(CC(=O)Nc2ccc(C(=O)N(C)C)cc2)C1=O (stereo not shown) [Compound Z14224841]	16
Cc1cc(C)n(-c2ccc(Cl)c(C(=O)OCC(=O)c3ccc(F)c(F)c3)n2)n1 [Compound Z15431588]	20
COc1ccc(/C=C2/CC(C)Cc3c2nc2ccccc2c3C(=O)OCC(N)=O)cc1 (stereo not shown) [Compound Z15674725]	30
C/C(N)=C(\C#N)C(=O)CSc1nnc(-c2ccccc2F)n1Cc1ccccc1 [Compound Z15780020]	-17
COc1ccc(Nc2nc(COC(=O)CNS(=O)(=O)c3ccc(C)c(C)c3)cs2)cc1 [Compound Z16158532]	-1
O=C(CN1C(=O)NC(Cc2c[nH]c3ccccc23)C1=O)Nc1ccc(-c2ccccc2)cc1 (stereo not shown) [Compound Z16202306]	6
CCOc1cc(N2CCOCC2)c(OCC)cc1NC(=O)CSc1nnc(-c2ccc3c(c2)OCO3)n1-c1ccccc1 [Compound Z16253844]	-3
Cc1cc(C(=O)CSc2nnc(-c3ccc4c(c3)OCO4)n2-c2ccccc2)c(C)n1C [Compound Z16254213]	6
O=C(CSc1nnc(-c2ccc3c(c2)OCO3)n1-c1ccccc1)c1ccc[nH]1 [Compound Z16254229]	7
Cc1cccc(C(C)C)c1NC(=O)CSc1nc2ccc(Cl)cc2[nH]1 [Compound Z16257955]	4
Cc1noc(C)c1CSc1ncnc2sc3c(c12)CCC(C)C3 (stereo not shown) [Compound Z16316201]	-8
NS(=O)(=O)c1ccc(CCNC(=O)CSc2nnc(-c3ccccc3F)n2CCc2ccccc2)cc1 [Compound Z16426742]	-1
O=C(CSc1nnc(-c2ccccc2F)n1CCc1ccccc1)c1ccc[nH]1 [Compound Z16427126]	-9
O=C(OCCOc1ccccc1Cl)c1cn2ccccc2n1 [Compound Z16593263]	0
Cc1ccc(SCC(=O)OCC(=O)Nc2ccc3[nH]c(=O)[nH]c3c2)cc1C [Compound Z16616292]	-13
Cc1cccc(C(C)C)c1NC(=O)CSc1nc2ccc(Cl)cc2c(=O)n1CC(C)C [Compound Z16658902]	-5
C=CCN1C(=O)c2ccc(C(=O)OCc3cn4ccccc4n3)cc2C1=O [Compound Z16715300]	29
Cc1noc(C)c1COC(=O)c1ccc2[nH]c(C)c(C)c2c1 [Compound Z17094388]	4
COc1ccccc1NC(=O)c1ccc(NC(=O)COc2ccc(C3SCCS3)cc2)cc1 [Compound Z17289317]	1
Fc1ccccc1-c1nc(SCc2cn3ccccc3n2)n[nH]1 [Compound Z17356722]	0
COCCCn1c(=O)c2ccccc2n2c(SCc3cn4ccccc4n3)nnc12 [Compound Z17893104]	-35

Structure (SMILES)	First screening IR (inhibition rate) [%]
CCCCCn1c(=O)c2ccccc2n2c(SCC(=O)NC(=O)NC3CCCC(C)C3C)nnc12 (stereo not shown) [Compound Z17895832]	-5
C=CCNc1nc(C(=O)OCc2csc(-c3ccccc3)n2)cs1 [Compound Z17964966]	18
C=CCNc1nc(C(=O)OCCCn2c(=O)[nH]c3ccccc32)cs1 [Compound Z17965676]	5
COc1cc(C(=O)OC(C)C(=O)NC(C)(C#N)C(C)C)ccc1Oc1ccc(Cl)cc1[N+](=O)[O-] (stereo not shown) [Compound Z18025700]	1
O=C(CSc1ccc2c(c1)OCCCO2)Nc1ccc2c(c1)CCC2 [Compound Z18212324]	14
N#C/C(=C(/O)COC(=O)CCc1ccccc1)c1nc2ccccc2[nH]1 [Compound Z18264769]	5
O=C(COC(=O)c1ccccc1OCc1ccccc1)Nc1ccc2c(c1)CCC2 [Compound Z18387854]	26
Cc1ccccc1Nc1nc(N)nc(CSCc2ccc(Cl)cc2)n1 [Compound Z18432818]	6
Cc1ccccc1Nc1nc(N)nc(CSc2ccccc2Cl)n1 [Compound Z18459341]	17
Cn1nnnc1SCC(=O)c1c(-c2ccccc2)[nH]c2ccccc12 [Compound Z18519048]	0
CC(Sc1nnnn1C)C(=O)Nc1ccc2c(c1)OCO2 (stereo not shown) [Compound Z18519758]	5
Cc1cc(C)c(C(=O)COc2ncnc3ccccc23)cc1C [Compound Z18537178]	7
COc1cccc(NC(=O)COc2ncnc3ccccc23)c1 [Compound Z18537695]	-1
Cc1cc(C(=O)COc2ncnc3ccccc23)c(C)n1CC(F)(F)F [Compound Z18537891]	6
NC(=O)c1cc(NC(=O)COC(=O)c2c3c(nc4ccccc24)/C(=C\c2ccccc2Cl)CC3)cc(C(N)=O)c1 [Compound Z18607575]	10
CC(Sc1nc2nn(-c3ccccc3)c(=O)c-2c2n1CCCCC2)C(=O)NC(=O)NC1CCCCC1 (stereo not shown) [Compound Z18614891]	7
Cc1cc(C)c(C(=O)CSc2nnc(-c3c[nH]c4ccccc34)n2CC2CCCO2)c(C)c1 (stereo not shown) [Compound Z18647134]	-1
CC(Sc1nnc(-c2c[nH]c3ccccc23)n1CC1CCCO1)C(=O)Nc1ccc(N(C)C)cc1 (stereo not shown) [Compound Z18647898]	0
O=C(CSc1nnc(-c2ccco2)o1)Nc1ccc2c(c1)CCC2 [Compound Z18650720]	15
Cc1ccc(-n2c(SCC(=O)Nc3ccc(N4CCOCC4)cc3)nnc2-c2cccnc2)c(C)c1 [Compound Z18666705]	54
CCOc1ccc(-n2c(SCC(=O)c3ccc[nH]3)nnc2-c2ccccc2Cl)cc1 [Compound Z18672879]	7
O=C(COC(=O)c1ccccc1NS(=O)(=O)c1ccc(F)cc1)NC1CCCc2ccccc21 (stereo not shown) [Compound Z18712040]	-7

Structure (SMILES)	First screening IR (inhibition rate) [%]
Cc1cc(Br)ccc1SCC(=O)OC/C(O)=C(\C#N)c1nc2ccccc2[nH]1 [Compound Z18738204]	43
N#C/C(=C(/O)COC(=O)c1cc(F)c(F)cc1Cl)c1nc2ccccc2[nH]1 [Compound Z18771813]	8
COc1ccc2cc(-c3cc(C(=O)OCC(=O)Nc4cccc(C)c4)c4ccccc4n3)ccc2c1 [Compound Z18792577]	-12
CCN(CC)S(=O)(=O)c1ccc(Cl)c(NC(=O)COC(=O)c2cc(-c3ccc4cc(OC)ccc4c3)nc3ccccc23)c1 [Compound Z18792611]	-19
O=C(OCC(=O)N1N=C(c2ccc(Cl)cc2)CC1c1ccco1)c1cc(-c2ccco2)nc2ccccc12 (stereo not shown) [Compound Z18799147]	0
CSc1ncccc1C(=O)OCC(=O)N1N=C(c2ccc3ccccc3c2)CC1c1ccccc1 (stereo not shown) [Compound Z18838070]	9
CCc1nc2ccccc2c(C(=O)OCC(=O)Nc2cc(C(N)=O)cc(C(N)=O)c2)c1C [Compound Z19092990]	2
CN(CC(=O)Nc1ccccc1Cl)C(=O)COC(=O)c1c2c(nc3ccccc13)CCC(C(C)(C)C)C2 (stereo not shown) [Compound Z19182299]	-2
Cc1ccc(NC(=O)CSc2ncnc3ccccc23)cc1F [Compound Z19314901]	4
CC1CCC(C(C)C)C(OC(=O)CSc2ncnc3ccccc23)C1 (stereo not shown) [Compound Z19316042]	0
N#Cc1ccc(Cl)cc1NC(=O)CSc1ncnc2ccccc12 [Compound Z19316082]	18
Cc1ccccc1Nc1nc(N)nc(CSc2nnc(NCc3ccccc3)s2)n1 [Compound Z19326161]	1
COc1ccc(/C=C2/CCCc3c2nc2ccccc2c3C(=O)OCC(=O)Nc2sc3c(c2C(=O)Nc2ccc(Cl)cc2)CCCC3)cc1 [Compound Z19394488]	7
Cc1ccccc1-n1c(SCC(=O)Nc2ccc(N3CCOCC3)cc2)nnc1-c1ccncc1 [Compound Z19446050]	-3
O=C(CSc1n[nH]c(-c2cccs2)n1)Nc1ccc(-c2ccccc2)cc1 [Compound Z19449989]	4
CC(Sc1n[nH]c(-c2cccs2)n1)C(=O)c1c[nH]c2ccccc12 (stereo not shown) [Compound Z19450299]	17
CC(Sc1n[nH]c(-c2cccs2)n1)c1nc2ccccc2c(=O)[nH]1 (stereo not shown) [Compound Z19451548]	2
O=C(CSc1nnc(-c2c[nH]c3ccccc23)n1-c1ccc(Cl)cc1)N1CCNC1=O [Compound Z19511505]	13
COC(=O)c1c2c(nc3ccccc13)/C(=C\c1ccc3c(c1)OCO3)CCC2 [Compound Z19539846]	-2
O=C(CSc1nc2ccccc2[nH]1)NC(=O)NCc1ccccc1 [Compound Z19649872]	7
